We go through twelve molecules from US8324258B2, “F1F0-ATPase inhibitors and related methods” (The Regents of the University of Michigan, priority 2007, dated 2012).

The target of test [1] is T1, F1F0-ATPase (Bos taurus, UniProt P13621). In words: Inhibition of ATP hydrolysis by the F1F0-ATPase. The note with it: IC40: concentration for 40% inhibition. Format: biochemical. On the procedure: (§1) The compounds listed in Table 9 were tested for activity against F1F0-ATPase by measuring ATP synthesis and ATP hydrolysis. In addition, the compounds were assessed for cytotoxicity in Ramos cells Inhibition of ATP synthesis and hydrolysis by the F1F0-ATPase and cytotoxicity in Ramos cells was measured as described in K. M. Johnson et al. Chemistry & Biology 2005, 12, 485-496.

Another test concerns Ramos cells. In words: Cytotoxicity (cell death) in Ramos cells. In kind it is cell-based. The note with it: Ramos cells. On the procedure: as §1
For test [2], the target named is T1, F1F0-ATPase. In words: Inhibition of ATP synthesis by the F1F0-ATPase. The note with it: IC40: concentration for 40% inhibition. In kind it is biochemical. Here is the method:
as §1

Bounds are passed on as bounds.

Regarding `O=C(N=C(NCCc1c[nH]cn1)Nc1cccc(-c2ccccc2)c1)c1ccc(C(F)(F)F)cc1` [VI-4, (Z/E)-N-((2-(1H-imidazol-4-yl)ethylamino)(biphenyl-3-ylamino)methylene)-4-(trifluoromethyl)benzamide], at F1F0-ATPase [1], the “ATP Hydrolysis (IC40 μM)” value was above 10 µM. Besides, the EC50 (usually the concentration at which the effect is half-maximal) in the test with Ramos cells is above 10 µM. Besides, the “ATP Synthesis (IC40 μM)” value at F1F0-ATPase [2] was below 10 µM.

On to `N#Cc1cccc(C(=O)N=C(NCCc2c[nH]cn2)Nc2cccc(-c3ccccc3)c2)c1` [VI-5, (Z/E)-N-((2-(1H-imidazol-4-yl)ethylamino)(biphenyl-3-ylamino)methylene)-3-cyanobenzamide], for which the “ATP Hydrolysis (IC40 μM)” value at F1F0-ATPase [1] was above 30 µM. In the test with Ramos cells, this molecule returned a concentration for a half-maximal effect (EC50) above 10 µM. In addition, the “ATP Synthesis (IC40 μM)” value at F1F0-ATPase [2] was above 10 µM.

Regarding `N#Cc1ccc(C(=O)N=C(NCCc2c[nH]cn2)Nc2cccc(-c3ccccc3)c2)cc1` [VI-6, (Z/E)-N-((2-(1H-imidazol-4-yl)ethylamino)(biphenyl-3-ylamino)methylene)-4-cyanobenzamide], the “ATP Hydrolysis (IC40 μM)” value on F1F0-ATPase [1] was above 30 µM. The 50% effective concentration (EC50) in the test on Ramos cells was above 10 µM. The “ATP Synthesis (IC40 μM)” value at F1F0-ATPase [2] was below 10 µM.

As for `O=C(N=C(NCCc1c[nH]cn1)Nc1cccc(-c2ccccc2)c1)c1cccc(F)c1` [VI-7, (Z/E)-N-((2-(1H-imidazol-4-yl)ethylamino)(biphenyl-3-ylamino)methylene)-3-fluorobenzamide], the “ATP Hydrolysis (IC40 μM)” value at F1F0-ATPase [1] was above 10 µM. For the same molecule, the EC50 with Ramos cells was above 10 µM. Moreover, on F1F0-ATPase [2], the “ATP Synthesis (IC40 μM)” value is below 10 µM.

On to `O=C(N=C(NCCc1c[nH]cn1)Nc1cccc(-c2ccccc2)c1)c1ccc(F)cc1` [VI-8, (Z/E)-N-((2-(1H-imidazol-4-yl)ethylamino)(biphenyl-3-ylamino)methylene)-4-fluorobenzamide], for which the “ATP Hydrolysis (IC40 μM)” value at F1F0-ATPase [1] was above 10 µM. In the test with Ramos cells, this molecule gave an EC50 above 10 µM. Further, the “ATP Synthesis (IC40 μM)” value on F1F0-ATPase [2] was below 10 µM.

For `O=C(N=C(NCCc1c[nH]cn1)Nc1cccc(-c2ccccc2)c1)c1ccc(Cl)c(Cl)c1` [VI-9, (Z/E)-N-((2-(1H-imidazol-4-yl)ethylamino)(biphenyl-3-ylamino)methylene)-3,4-dichlorobenzamide], on F1F0-ATPase [1], the “ATP Hydrolysis (IC40 μM)” value was below 10 µM. In addition, the EC50 with Ramos cells is below 10 µM. Besides, the “ATP Synthesis (IC40 μM)” value on F1F0-ATPase [2] is below 10 µM.

Take `O=C(N=C(NCCc1c[nH]cn1)Nc1cccc(-c2ccccc2)c1)c1cccc(Br)c1` [VI-10, (Z/E)-N-((2-(1H-imidazol-4-yl)ethylamino)(biphenyl-3-ylamino)methylene)-3-bromobenzamide]: the “ATP Hydrolysis (IC40 μM)” value at F1F0-ATPase [1] is above 10 µM. The molecule further showed a half-maximal effective concentration (EC50) with Ramos cells below 10 µM. The “ATP Synthesis (IC40 μM)” value at F1F0-ATPase [2] was below 10 µM.

For `O=C(N=C(NCCc1c[nH]cn1)Nc1cccc(-c2ccccc2)c1)c1ccc(Br)cc1` [VI-11, (Z/E)-N-((2-(1H-imidazol-4-yl)ethylamino)(biphenyl-3-ylamino)methylene)-4-bromobenzamide], the “ATP Hydrolysis (IC40 μM)” value at F1F0-ATPase [1] was above 10 µM. Further, the EC50 with Ramos cells was below 10 µM. Also, the “ATP Synthesis (IC40 μM)” value at F1F0-ATPase [2] was below 10 µM.

On to `O=C(N=C(NCCc1c[nH]cn1)Nc1cccc(-c2ccccc2)c1)c1cccc([N+](=O)[O-])c1` [VI-12, (Z/E)-N-((2-(1H-imidazol-4-yl)ethylamino)(biphenyl-3-ylamino)methylene)-3-nitrobenzamide], for which the “ATP Hydrolysis (IC40 μM)” value on F1F0-ATPase [1] is above 30 µM. This molecule registered an EC50 with Ramos cells above 10 µM. On F1F0-ATPase [2], the “ATP Synthesis (IC40 μM)” value was below 10 µM.

As to `O=C(N=C(NCCc1c[nH]cn1)Nc1cccc(-c2ccccc2)c1)c1ccc([N+](=O)[O-])cc1` [VI-13, (Z/E)-N-((2-(1H-imidazol-4-yl)ethylamino)-(biphenyl-3-ylamino)methylene)-4-nitrobenzamide], the “ATP Hydrolysis (IC40 μM)” value at F1F0-ATPase [1] is above 30 µM. The EC50 in the test with Ramos cells is below 10 µM. The “ATP Synthesis (IC40 μM)” value on F1F0-ATPase [2] was below 10 µM.

Take `O=C(N=C(NCCc1c[nH]cn1)Nc1cccc(-c2ccccc2)c1)c1ccc(Cl)cc1` [VI-14, (Z/E)-N-((2-(1H-imidazol-4-yl)ethylamino)(biphenyl-3-ylamino)methylene)-4-chlorobenzamide]: the “ATP Hydrolysis (IC40 μM)” value at F1F0-ATPase [1] is above 10 µM. The molecule further displayed an EC50 in the test on Ramos cells above 10 µM. In addition, the “ATP Synthesis (IC40 μM)” value at F1F0-ATPase [2] was below 10 µM.

For “(Z/E)-N-((2-(1H-imidazol-5-yl)ethylamino)(4-(methylsulfonyl)phenylamino)methylene)-3-chlorobenzamide [III-36]”, the “ATP Hydrolysis (IC40 μM)” value at F1F0-ATPase [1] is above 30 µM. In the test with Ramos cells, this molecule registered a half-maximal effective concentration (EC50) above 30 µM. In addition, the “ATP Synthesis (IC40 μM)” value on F1F0-ATPase [2] is above 20 µM.
